Values joined by “and” are separate entries in the source; they are usually repeats but may differ in a detail not shown here. Identical values can stand only once.
What was measured:
MOC2 tumors = assay: Orthotopic tumor CyTOF analysis of immune infiltrate; assay type: in vivo, C57BL/6 mice; set-up: Immune cell quantification: M2 / CyTOF cell quantification, Immune cell quantification: CD4+ / CyTOF cell quantification, Immune cell quantification: M1 / CyTOF cell quantification, Immune cell quantification: M-MDSC / CyTOF cell quantification, Immune cell quantification: PMN-MDSC / CyTOF cell quantification, Immune cell quantification: Eosinophils / CyTOF cell quantification, Immune cell quantification: B cells: unit not given here
Experimental: 6-week-old C57BL/6 female mice were implanted with 50,000 MOC2 cells into the tongue. […] […] Tissues were incubated for 15 min at 37 °C and mechanically digested using the gentle MACs Octo Dissociator. Digested samples were then passed through a 100-µm strainer to acquire a single-cell. For viability staining, cells were washed in PBS and stained with Cell-ID Cisplatin (DVS Sciences) to a final concentration of 5 μM for 5 min at room temperature. Cisplatin was quenched when cells were washed and stained with the antibody cocktail. Antibodies were prepared in Maxpar cell staining buffer (PBS with 2 mM EDTA, 0.1% BSA, 0.05% NaN3) and incubated with cells for 15 min at room temperature. […] Antibodies (clone in parenthesis) used for CyTOF included B220 (RA3-6B2), CD117(2B8), CD11c (N418), CD25 (3C7), CD4 (RM4-5), CD45 (30-F11), CD8a (53-6.7), MHC-II (M5/114.15.2), NKP46 (29A1.4), TCRb (H57-597) from Fluidigm. Antibodies CD103 (2E7), CD115 (AFS98), CD11b (M1/70), CD19 (6D5), CD23 (B3B4), CD3 (145-2C11), CD64 (X54-5/7.1), F4/80 (BM8), FCeRI (Mar-1), FR4 (TH6), Ly6C (HK1.4), Ly6G (1A8), NK1.1 (PK136) from BioLegend and antibody Siglec-F (1RNM44N) from ebioscience. All antibodies were validated by the supplier and used at a 1:100 dilution. Cells were washed with staining buffer and pelleted. Before acquiring, cells were resuspended in 0.1× dilution of EQ Four Element Calibration beads (Fluidigm) and filtered through a 35 μm nylon mesh filter. Cells were acquired on a Helios CyTOF Mass Cytometer (Fluidigm) at an event rate of 200 events/s or less. Data was normalized using Matlab-based normalization software based on the EQ bead-removal. Prior to analysis, samples were subsampled to the lowest number of events and all counts were normalized to the same number of total events, 2324. To detect clusters of cells with a similar expression of surface markers in CyTOF, single cells were gated and clustered using unsupervised dimensionality reduction algorithm optimal t-Distributed Stochastic Neighbor Embedding (opt-SNE) algorithm in OMIQ data analysis software (www.omiq.ai) (530 iterations, Perplexity 30, and Theta 0.5)[51].
Supplementary Figure 8: CyTOF analysis of tumor immune infiltrates. a)
populations identified with opt-SNE. b) MOC2 murine tumors orthotopically implanted
Tumors harvested on day 11, analyzed by CyTOF,
provided in Source Data file.

[1] = tested on: CAL27 resistant (PIK3CA H1047R) tumors; assay: Orthotopic tongue tumor xenograft therapy; assay type: in vivo, human cells in NOD SCID mice; settings: PIK3CA H1047R-expressing CAL27 orthotopic tongue tumors
Text: (§1) Orthotopic tongue xenograft tumors were established in 6-week-old NOD SCID mice by injecting 150,000 CAL27 parental (WT) or PIK3CA H1047R-expressing cells. […] On the last day of tumor xenograft measurements, mice were euthanized, tongues resected, imaged, and fixed. […] IR was delivered as 2 parallel opposed fields. […]
(§2) Tumor cells Ab/ADC Ab/ADC CDX3379-MMAE
(§3) Supplementary Figure 7: CDX3379-MMAE ADC efficacy in tumor xenografts.
(§4) CAL27 parental (WT) or HER3 resistant (PIK3CA H1047R) tumor xenografts established in murine tongues on day 0. a) On day 7, mice i.v. injected with 2.5 nmoles […]
(§5) On the last day of tumor measurement
(§6) (day 16 for WT, day 14 for PIK3CA H1047R tumors), tongues resected, fixed and sectioned. Tissues stained for Ki-67 (Abcam, ab16667) by IHC and counterstained with hematoxylin. Data is representative of 6 independent tumors per tumor cell line and treatment. b) Mice with orthotopic tongue CAL27 PIK3CA H1047R tumors were […]
(§7) MMAE ADC on day 6 and day 8 (n= 6 tumors/group). On the last day of tumor measurements, tongues were resected, fixed, longitudinally sectioned and H&E stained.
(§8) Source data are provided in Source Data file.
(§9) (also on this page, place not known: CAL27-WT CAL27-Resistant UntreatedCDX3379CDX3379 -MMAE 07142128 volume (mm3) Tumor tipTongue a)On i.v.injected)

[2] = tested on: CAL27 parental (WT) tumors; assay: Orthotopic tongue tumor xenograft therapy; assay type: in vivo, human cells in NOD SCID mice; settings: single 2.5 nmole injection
Text: as §1, §2, §3, §4, §5, §6, §7, §8, §9

Substance: CDX3379-MMAE: anti-HER3 antibody CDX3379 with 4 MMAE per antibody via MC-VC-PABC linker, labeled with Cy5
- Immune cell quantification: CD8+ (MOC2 tumors; MOC2 tumors, 2.5 nmoles drug on day 7, CyTOF on day 11, counts normalized to 2324 total events (percent of counts as in Supp. Fig. 8b), one value per tumor, untreated 0.26, 1.08, 0.73, 0.77): 0.86 and 0.95
- Immune cell quantification: T regs (MOC2 tumors; MOC2 tumors, 2.5 nmoles drug on day 7, CyTOF on day 11, one value per tumor, untreated 0.52, 0.82, 0.90, 0.65): 1.64 and 1.12 and 1.68
- CyTOF cell quantification, Immune cell quantification: B cells (MOC2 tumors; Tumor #1): 1.59
- CyTOF cell quantification, Immune cell quantification: CD4+ (MOC2 tumors; Tumor #1): 3.49
- CyTOF cell quantification, Immune cell quantification: Eosinophils (MOC2 tumors; Tumor #1): 19.75
- CyTOF cell quantification, Immune cell quantification: M1 (MOC2 tumors; Tumor #1): 1.46
- CyTOF cell quantification, Immune cell quantification: M-MDSC (MOC2 tumors; Tumor #1): 5.98
- CyTOF cell quantification, Immune cell quantification: PMN-MDSC (MOC2 tumors; Tumor #1): 55.25
- CyTOF cell quantification, Immune cell quantification: B cells (MOC2 tumors; Tumor #2): 0.69
- CyTOF cell quantification, Immune cell quantification: CD4+ (MOC2 tumors; Tumor #2): 3.53
- CyTOF cell quantification, Immune cell quantification: Eosinophils (MOC2 tumors; Tumor #2): 13.68
- CyTOF cell quantification, Immune cell quantification: M1 (MOC2 tumors; Tumor #2): 0.69
- CyTOF cell quantification, Immune cell quantification: M-MDSC (MOC2 tumors; Tumor #2): 5.25
- CyTOF cell quantification, Immune cell quantification: PMN-MDSC (MOC2 tumors; Tumor #2): 63.34
- CyTOF cell quantification, Immune cell quantification: B cells (MOC2 tumors; Tumor #3): 1.94
- CyTOF cell quantification, Immune cell quantification: CD4+ (MOC2 tumors; Tumor #3): 1.98
- CyTOF cell quantification, Immune cell quantification: Eosinophils (MOC2 tumors; Tumor #3): 11.88
- CyTOF cell quantification, Immune cell quantification: M1 (MOC2 tumors; Tumor #3): 0.43
- CyTOF cell quantification, Immune cell quantification: M-MDSC (MOC2 tumors; Tumor #3): 4.09
- CyTOF cell quantification, Immune cell quantification: PMN-MDSC (MOC2 tumors; Tumor #3): 66.35
- CyTOF cell quantification, Immune cell quantification: B cells (MOC2 tumors; Tumor #4): 2.11
- CyTOF cell quantification, Immune cell quantification: CD4+ (MOC2 tumors; Tumor #4): 4.39
- CyTOF cell quantification, Immune cell quantification: Eosinophils (MOC2 tumors; Tumor #4): 27.02
- CyTOF cell quantification, Immune cell quantification: M1 (MOC2 tumors; Tumor #4): 0.47
- CyTOF cell quantification, Immune cell quantification: M-MDSC (MOC2 tumors; Tumor #4): 2.54
- CyTOF cell quantification, Immune cell quantification: PMN-MDSC (MOC2 tumors; Tumor #4): 51.89
- Immune cell quantification: M2 (MOC2 tumors; mouse, in vivo): 1.20 and 2.19 and 1.25 and 1.42
- tumor immune populations changed (CyTOF) (MOC2 tumors; orthotopic MOC2 tumors, single 2.5 nmole i.v. injection): regulatory T cells, dendritic cells and NK cells that were upregulated
- tumor growth [1]: significant growth delay
- tumor growth (tumor volume, Ki-67) [2]: further enhanced
